Laboratory results reported in patent EP0781282B1, “[1,2,4]TRIAZOLO[4,3-a]QUINOXALINONE DERIVATIVES, THEIR PREPARATION AND USE” (NOVO NORDISK A/S, priority 1994, dated 1996).
pIC50: −log10 of the molar value.

How the values were obtained:
[1] = molecular target: AMPA receptors; experiment: 3H-AMPA binding (Test 1); settings: displacement of 50% of specific 3H-AMPA binding (5 nM); rat cerebral cortical membrane homogenate, 0°C, 30 min
Protocol: The displacement activity of the compounds may be shown by determining the IC50 value which represents the concentration (µM) which causes a displacement of 50% of the specific binding of ^3H-AMPA.
^3H-AMPA binding (Test 1)
500 µl of thawed rat cerebral cortical membrane homogenate in Tris-HCI (30 mM), CaCl2 (2.5 mM) and KSCN (100 mM) pH 7.1 were incubated at 0°C for 30 min. with 25 µl ^3H-AMPA (5 nM final concentration) and the test compound and buffer. Nonspecific binding was determined by incubation with L-glutamic acid (600 µM final concentration). The binding reaction was terminated by adding 5 ml of ice-cold buffer followed by filtration through Whatman GF/C glass fibre filters and 2x5 ml wash with ice-cold buffer. Bound radioactivity was measured by scintillation counting. IC50 was determined by Hill analysis of at least four concentrations of test compound.

[2] = test system: quisqualic acid stimulated spreading depression in chicken retina; experiment: Spreading depression in chicken retina (Test 2); settings: 50% maximal inhibition of spreading depression; quisqualate 1 µg/ml, chick retina, 26°C
Protocol: The antagonism is measured by determining the IC50 value which represents the concentration which produces a 50% maximal inhibition of quisqualic acid stimulated spreading depression in chicken retina.
Spreading depression (Test 2)
Chicks (3-10 days old) were decapitated, the eyes enucleated and sectioned along the equatorial plane. After removal of the anterior chamber and the vitreous body, the posterior chamber of each eye was placed in a small petri dish containing a physiological saline solution (P.S.S.) of the following composition (mM) NaCI (100), KCI (6.0), CaCl2 (1.0), MgSO4 (1.0), NaHCO3 (30), NaH2PO4 (1.0), glucose (20).
The solution was saturated with 100% O2 and maintained at a temperature of 26°C.
The eyes were initially incubated in normal P.S.S. for 15-30 min. and then transferred to P.S.S. containing quisqualate (1 µg/ml). […] The time taken for an S.D. to start in each eye was measured.
After a further 15 min. of incubation in normal P.S.S. the eyes were transferred to normal P.S.S. containing the test compound and incubated for 15 min. […] The time taken for an S.D. to start in each eye was measured again. The eyes were then placed back in normal P.S.S. and after 15 min. the time taken for S.D. to start was measured again, in order to assess the degree of recovery from any drug effects. […]

`CCOP(=O)(O)Cc1nnc2c(=O)[nH]c3cc(C(F)(F)F)c(-n4ccnc4)cc3n12` [Example 1, 1-(Ethoxy-hydroxy-phosphorylmethyl)-8-(1H-imidazol-1-yl)-7-trifluoromethyl[1,2,4]triazolo[4,3-a]quinoxalin-4(5H)-one] was tested, and the pIC50 [1] was 6.62 and the pIC50 [2] was 5.88.
